Laboratory results from US20140243391A1, “PHOSPHOLIPID-DETERGENT CONJUGATES AND USES THEREOF” (CENTRE NATIONAL DE LA RECHERCHE SCIENTIFIQUE, priority 2011, published 2014).
Several values for one entry are separate records, joined by “and”; a condition that tells them apart may be missing. Identical values can stand only once. Like-named read-outs stand apart in the source and are kept apart here.

Columns and labels:
[1] = test system: A549, Calu-3, and NCI-H292 cell line; assay: LDH release in pulmonary cell lines, statements not tied to one line; type: cell-based; details: cell lines investigated, pDNA lipoplexes
Experimental: Lactate dehydrogenase (LDH) release was used to assess the cytotoxicity of the formulations used in the transfection experiments described as outlined. Typically, at the end of each transfection experiment, the culture medium was removed and placed in another 96-wells plate. LDH activity was measured using a commercial kit (Cytotoxicity Detection Kit Plus, Roche Applied Science) according to the manufacturer's instructions. LDH activity was expressed as the percentage of the maximal LDH release obtained after treatment of the cells with the lysis solution kit (5 μL). Less than 10% LDH release was regarded as a measure of non-significant toxicity. Value for each sample is the mean of triplicate determinations (±SD).

[2] = Light scattering: particle size and zeta potential of lipoplexes; type: physicochemical; details: pCMVLuc lipoplexes, 5% glucose, N/P 3, 25° C.
Experimental: The average particle size of the liposomes and lipoplexes was measured by photon correlation spectroscopy using a Zetasizer nanoZS apparatus (Malvern Instruments, Paris, France). All measurements were conducted at 25° C. Data were analyzed using the multimodal number distribution software supplied with the instrument. For the preparation of lipoplexes, lipids were freshly solubilized in ethanol (1.24 mM) and deposited (60 μL) at the bottom of a 1.5 mL eppendorf tube. Volatiles were removed under reduced pressure to obtain a dry film. Typically, 404 μL of 60 μM solution of pCMVLuc in 4.5% glucose was added to the lipid. After 30 seconds vortexing and 15 minutes standing at room temperature, the complexes were diluted in 4.5 glucose (1096 μL) for measurements. Value for each sample is the mean of triplicate determinations (±SD).

BHK-21 cells [3] = assay: pDNA (pCMVLuc) transfection in BHK-21 cells; type: cell-based, Syrian hamster; details: for pDNA transfection efficiency, in words: BHK-21, pCMVLuc, 10% FCS, N/P 1, 3, 5
Experimental: (§1) Lipids were freshly solubilized in ethanol at 1.24 mM concentration. Typically, 40.40 μL of 60 μM solution of DNA (pCMVLuc) in 4.5% glucose was added to the lipid (either 2.00, 5.85 or 9.75 μL deposited at the bottom of a 500 μL eppendorf tube and dried under vacuum). After gentle vortex agitation (30 sec), the complexes were allowed to stand at room temperature for 30 min before addition (10 μL, i.e. 0.2 μg DNA) into each well (triplicate). Cells were then let to grow in the incubator without further handling. Luciferase gene expression was assessed 24 h later using a commercial kit according to the manufacturer's protocol (Promega, Charbonnières, France). Cells were washed with PBS (100 μL) and lyzed with the Promega lysis buffer (20 μL). After agitation for 15 min, PBS (150 μL) was added. A 5 μL aliquot was transferred to a white microplate and luminescence was recorded for 1 sec with a luminometer (Berthold Centro LB960 XS, Thoiry, France) upon addition of the luciferin substrate (35 μL). Value for each sample is the mean of triplicate determinations (±SD).
The ability to transfect siRNA into U87Luc cells and pCMVLuc pDNA into BHK-21 was assessed for each synthetized analogue as shown in parts A and B hereabove.

[4] = test system: A549, Calu-3, and NCI-H292 cell line; assay: pDNA transfection in pulmonary cell lines, statements not tied to one line; type: cell-based; details: whatever the cell line considered, pCMVLuc, N/P 1-5
Experimental: as §1
The ability of compounds 1-9 to transfect plasmid DNA was assessed for the following cell lines: A549 cells (alveolar, human lung carcinoma), Calu-3 cells (bronchial, epithelial lung adenocarcinoma), and NCI-H292 cells (bronchial, human lung mucoepidermoid carcinoma). The results concerning transfection activity and LDH release for compounds 1 to 9 are shown in FIGS. 19A, 19B and 19C for cell line A549, Calu-3 and NCI-H292, respectively.

[5] = Hydrolytic stability of liposomes by 31P-NMR; details: Table 3, liposomes
Experimental: For hydrolysis rate measurements using ^31P-NMR, liposomes were obtained by a solvent injection technique. […] The lipids (10 μmol) were dissolved in PrOH (200 μL) and then injected with a syringe with a flow rate of ca. 600 μL/min and a stirring speed of 400 rpm into the appropriate aqueous buffer medium (either Hepes 10 mM pH 7.4 or AcOK/AcOH 10 mM pH 4.5).
The hydrolytic stability of CPDCs/conjugates under neutral and acidic conditions was evaluated in a model experiment involving ^31P-NMR measurements. Phosphotriesters and phosphodiesters display ^31P chemical shifts differing by 5-6 ppm allowing a precise monitoring of the hydrolysis reaction. CPDCs/conjugates were formulated into liposomes using an injection technique.[47] Liposomes were prepared at pH 7.4 and pH 4.5, and incubated at 37° C. and hydrolysis was monitored by ^31P-NMR measurements.
For hydrolysis rate measurements involving ^31P-NMR spectoscopy and BET intercallation assays, liposomes were prepared by a solvent injection technique. A dry lipid film (10 μmol) was dissolved in i-PrOH (200 μL) and then injected with a syringe (flow rate: 600 μL/min) under stirring (stirring speed: 400 rpm) in the middle of the appropriate aqueous buffer medium (either Hepes 10 mM, pH 7.4 or AcOK/AcOH 10 mM, pH 4.5), at 22° C.
The cationic lipids were formulated into liposomes using an injection technique as described hereabove. Liposomes were prepared at pH 7.4 and pH 4.5, and incubated at 37° C. Periodical acquisition of ^31P-NMR spectra allowed determination of the time t, required for 50% hydrolysis (Table 3).

BHK-21 cells [6] = assay: LDH release assay, BHK-21 cells
U87-Luc cells = assay: siRNA transfection, luciferase gene silencing; type: cell-based, human; set-up: Percentage of residual luciferase expression, Control siRNA, N/P: 25 / Percentage of residual luciferase expression, Control siRNA, N/P: 50 / Percentage of residual luciferase expression, Control siRNA, N/P: 100: concentration or dose not given beside the values; details: for luciferase silencing / siRNA transfection activity, in words: U87-Luc cells, siLuc vs control siRNA, 48 h, 10% FBS
U87Luc cells = assay: LDH release assay, U87Luc cells; type: cell-based, human
16HBE cells = assay: Cell mitochondrial activity (MTT assay); type: cell-based; details: 48 h
Experimental: Cells were grown in culture flasks (Becton-Dickinson) with DMEM culture medium supplemented with 10% FBS, 100 U/mL penicillin, 100 mg/mL streptomycin, 2 mM L-glutamine, and 5 mM Hepes. Culture was carried out at 37° C., in a 5% CO2 and humidified atmosphere. At confluence, cells were released with trypsin (0.5% in PBS), counted and transferred into a 96-well plate (Becton-Dickinson) at a density of 6,000 cells/well. On the next day (24 h later), culture medium was changed to fresh DMEM medium supplemented with 10% FBS before addition of lipoplexes (100 μL) prepared as described above. After a 48 h incubation period at 37° C., culture supernatant was removed, cells were carefully washed with PBS and 0.5 mg/mL MTT (1 mL) in complete culture medium was added. After a 2 h incubation period at 37° C., MTT solution was removed and DMSO (1 mL) was added to lyse cells and dissolve reduced MTT. Intensity of MTT reduction was then evaluated by measuring absorbance at 570 nm. Viability of cells treated with lipoplexes was expressed as the percentage of the absorbance measured in untreated cells. Value for each sample is the mean of triplicate determinations (±SD).

Sheep erythrocytes = assay: Erythrocyte leakage (hemolysis) assay; type: cell-based; details: 2 h, 37° C.
Experimental: Hemolysis experiments were carried out according to a procedure described elsewhere. For recovery from washing steps, sheep red blood cells were centrifuged at 400 RCF for 10 min, and washed three times with 150 mM NaCl. […] Complete hemolysis was achieved using deionized water yielding the 100% control value. The negative control was obtained by suspension of RBC in phosphate buffer alone. The experiments were performed in triplicate.

BHK-21 cells [7] = test system: BHK-21 cells

1,2-Dioleoyl-sn-glycero-3-{1-[(dodecyloxycarbonyl)oxy]ethyl}phosphocholine chloride [PP120]
LDH release / cell toxicity, in words [1]: significant LDH release | Particle size (nm) [2]: 819.3 ± 79.8 nm | Zeta potential (mV) [2]: +62.9 mV | pDNA transfection efficiency, in words (BHK-21 cells [3]): more effective than control phospholipid EDOPC | pDNA transfection activity, in words [4]: significant transfection activity | t1/2 (h), time required for 50% hydrolysis ([5]; pH 4.5, 37° C.): 27 h | t1/2 (h), time required for 50% hydrolysis ([5]; pH 7.4, 37° C.): 29 h

1,2-Dioleoyl-sn-glycero-3-{4-[(dodecyloxy)-4-oxobutanoyloxy]methyl}phosphocholine chloride [PP93]
Particle size (nm) [2]: 364.3 ± 34.6 nm | Zeta potential (mV) [2]: −18.0 mV | effect of helper lipid DOPE on pDNA transfection efficiency (BHK-21 cells [3]; BHK-21, lipid/DOPE mixtures, 1:1 molar ratio): unable to assist DNA transfection when mixed with DOPE | pDNA transfection activity, in words [4]: significant transfection activity

CCCCCCCCCCCCCCCC(=O)OC[C@H](COP(=O)(OCCOCCOCCOCCOCCOCCOCCOCCOCCOc1ccc(C(C)(C)CC(C)(C)C)cc1)OCC[N+](C)(C)C)OC(=O)CCCCCCCCCCCCCCC (stereo partly drawn) [PP431]
Percentage of LDH release, Lipoplex with pDNA (BHK-21), N/P: 1 (BHK-21 cells [6]; Table 7, N/P 1): −0.09% | Percentage of LDH release, Lipoplex with pDNA (BHK-21), N/P: 3 (BHK-21 cells [6]; Table 7, N/P 3): 5.25% | Percentage of LDH release, Lipoplex with pDNA (BHK-21), N/P: 5 (BHK-21 cells [6]; Table 7, N/P 5): 2.38% | Percentage of residual luciferase expression, Control siRNA, N/P: 25 (U87-Luc cells; Table 5, N/P 25): 96.59% | Percentage of residual luciferase expression, Luc-targeting siRNA, N/P: 25 (U87-Luc cells; Table 5, N/P 25): 107.08% | Percentage of residual luciferase expression, Control siRNA, N/P: 50 (U87-Luc cells; Table 5, N/P 50): 64.76% | Percentage of residual luciferase expression, Luc-targeting siRNA, N/P: 50 (U87-Luc cells; Table 5, N/P 50): 75.27% | Percentage of residual luciferase expression, Control siRNA, N/P: 100 (U87-Luc cells; Table 5, N/P 100): 54.07% | Percentage of residual luciferase expression, Luc-targeting siRNA, N/P: 100 (U87-Luc cells; Table 5, N/P 100): 54.05% | Luciferase expression (RLU/well), N/P: 1 (BHK-21 cells [3]; Table 6, N/P 1): 4.90 × 10^5 RLU/well | Luciferase expression (RLU/well), N/P: 3 (BHK-21 cells [3]; Table 6, N/P 3): 6.45 × 10^6 RLU/well | Luciferase expression (RLU/well), N/P: 5 (BHK-21 cells [3]; Table 6, N/P 5): 6.75 × 10^6 RLU/well | Percentage of LDH release, Lipoplex with siRNA (U87Luc), N/P: 25 (U87Luc cells; Table 7, N/P 25): −1.94% | Percentage of LDH release, Lipoplex with siRNA (U87Luc), N/P: 50 (U87Luc cells; Table 7, N/P 50): −1.83% | Percentage of LDH release, Lipoplex with siRNA (U87Luc), N/P: 100 (U87Luc cells; Table 7, N/P 100): 4.24%

Triton X-100 [TX100]
concentration enough to decrease cell viability (16HBE cells): 20 to 40 µM | concentration achieving full membrane permeation to hemoglobin (Sheep erythrocytes): 200 µM and 150 to 200 µM

CCCCCCCC/C=C\CCCCCCCC(=O)OCC(C[N+](C)(C)C)OC(=O)CCCCCCC/C=C\CCCCCCCC.[Cl-] (stereo not drawn) [DOTAP, 1,2-Dioleoyloxy-3-(N,N,N-trimethylamino)propyl chloride]
luciferase silencing / siRNA transfection activity, in words (U87-Luc cells): unable to assist siRNA silencing activity

CCCCCCCCC=CCCCCCCCC(=O)OCC(COP(=O)(OCCCCCCCCCCCC)OCC[N+](C)(C)C)OC(=O)CCCCCCCC=CCCCCCCCC (mixture of isomers) [PP514]
Percentage of residual luciferase expression, Control siRNA, N/P: 25 (U87-Luc cells; Table 8, N/P 25): 100.51% | Percentage of residual luciferase expression, Luc-targeting siRNA, N/P: 25 (U87-Luc cells; Table 8, N/P 25): 103.75% | Percentage of residual luciferase expression, Control siRNA, N/P: 50 (U87-Luc cells; Table 8, N/P 50): 98.50% | Percentage of residual luciferase expression, Luc-targeting siRNA, N/P: 50 (U87-Luc cells; Table 8, N/P 50): 101.21% | Percentage of residual luciferase expression, Control siRNA, N/P: 100 (U87-Luc cells; Table 8, N/P 100): 94.58% | Percentage of residual luciferase expression, Luc-targeting siRNA, N/P: 100 (U87-Luc cells; Table 8, N/P 100): 99.76% | luciferase silencing / siRNA transfection activity, in words (U87-Luc cells): totally inefficient to transfect siRNA | pDNA transfection efficiency, in words (BHK-21 cells [3]): able to transfect DNA into cells | Luciferase expression (RLU/well), N/P: 1 (BHK-21 cells [3]; Table 9, N/P 1): 1.49 × 10^7 RLU/well | Luciferase expression (RLU/well), N/P: 3 (BHK-21 cells [3]; Table 9, N/P 3): 1.26 × 10^7 RLU/well | Luciferase expression (RLU/well), N/P: 5 (BHK-21 cells [3]; Table 9, N/P 5): 2.79 × 10^7 RLU/well | Percentage of LDH release, Lipoplex with pDNA (BHK-21), N/P: 1 (BHK-21 cells [7]): 0.15% | Percentage of LDH release, Lipoplex with pDNA (BHK-21), N/P: 3 (BHK-21 cells [7]): 0.76% | Percentage of LDH release, Lipoplex with pDNA (BHK-21), N/P: 5 (BHK-21 cells [7]): 0.46% | Percentage of LDH release, Lipoplex with siRNA (U87Luc), N/P: 25 (U87Luc cells; Table 10, N/P 25): −2.36% | Percentage of LDH release, Lipoplex with siRNA (U87Luc), N/P: 50 (U87Luc cells; Table 10, N/P 50): −3.13% | Percentage of LDH release, Lipoplex with siRNA (U87Luc), N/P: 100 (U87Luc cells; Table 10, N/P 100): −3.29%

1,2-Dioleoyl-sn-glycero-3-{1-[(dodecyloxycarbonyl)oxy]-2-methylpropyl}phosphocholine chloride [PP178]
LDH release / cell toxicity, in words [1]: significant LDH release | Particle size (nm) [2]: 721.8 ± 65.7 nm | Zeta potential (mV) [2]: +48.5 mV | LDH release (BHK-21 cells [6]; BHK-21, Part B pDNA lipoplexes, N/P 1, 3 and 5): 11% | pDNA transfection efficiency, in words (BHK-21 cells [3]): more effective than control phospholipid EDOPC | pDNA transfection activity, in words [4]: highest cell transfection levels | t1/2 (h), time required for 50% hydrolysis ([5]; pH 4.5, 37° C.): 498 h | t1/2 (h), time required for 50% hydrolysis ([5]; pH 7.4, 37° C.): 497 h
